Test results published in US8987193B2, “Nisin derivatives and the use thereof” (University College Cork—National University of Ireland, Cork, priority 2008, dated 2015).
“Also recorded” adds a separate entry of the source. Ends that are not written are not given here.

Assays:
S. aureus CBC4 = test: Deferred antagonism assay; type: cell-based; parameters: key: + = Enhanced bioactivity relative to control; − = Bioactivity equal to or less than control; NA = no activity evident; details: producing strain
Method in brief: (§1)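 Well-diffusion testing of purified nisin variants in 0.005% acetic acid, serially diluted, 37° C overnight; AU/ml = reciprocal of last dilution with definite zone × 20. Deferred antagonism: overnight GM17 colonies overlaid with seeded soft agar (0.75%); zone = clearing diameter minus 5 mm.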

L. lactis CBC7 = test: Deferred antagonism assay; type: cell-based; parameters: key: + = Enhanced bioactivity relative to control; − = Bioactivity equal to or less than control; NA = no activity evident; details: producing strain
Method in brief: as §1

L. lactis CBC8 = test: Deferred antagonism assay; type: cell-based; parameters: key: + = Enhanced bioactivity relative to control; − = Bioactivity equal to or less than control; NA = no activity evident; details: producing strain
Method in brief: as §1

L. monocytogenes CBC3 = test: Deferred antagonism assay; type: cell-based, Listeria monocytogenes; parameters: key: + = Enhanced bioactivity relative to control; − = Bioactivity equal to or less than control; NA = no activity evident; details: producing strain; L. mono CBC3
Method in brief: as §1

L. monocytogenes CBC2 = test: Deferred antagonism assay; type: cell-based, Listeria monocytogenes; parameters: key: + = Enhanced bioactivity relative to control; − = Bioactivity equal to or less than control; NA = no activity evident; details: producing strain; L. mono CBC2
Method in brief: as §1

L. monocytogenes CBC1 = test: Deferred antagonism assay; type: cell-based, Listeria monocytogenes; parameters: key: + = Enhanced bioactivity relative to control; − = Bioactivity equal to or less than control; NA = no activity evident; details: producing strain; L. mono CBC1
Method in brief: as §1

[1] = test system: Strep. agalactiae ATCC13813; test: Deferred antagonism assay; type: cell-based; details: producing strain, diameter of zone minus 5 mm, average of duplicates
Description: (§2) Deferred antagonism assays were performed by replicating strains on GM17 or GM17 x-gal agar plates and allowing them to grow overnight before overlaying with either GM17/BHI/TS/MH agar (0.75% w/v agar) seeded with the appropriate indicator strain. Zone size was calculated as the diameter of the zone of clearing minus the diameter of bacterial growth (5 mm) For higher throughput screening of N20PXX, XM21VX, XXK22T and XXX banks deferred antagonism assays were performed by replicating strains using a 96 pin replicator (Boekel) or spotting 5 μl of a fresh overnight culture on GM17 agar plates and allowing them to grow overnight. […] Additional sets of indicators were employed to further assess/reassess the bioactivity of a number of strains. […] For well-diffusion assays molten agar was cooled to 48° C. and seeded with the appropriate indicator strain. The inoculated medium was rapidly transferred into sterile Petri plates in 50 ml volumes, allowed to solidify and dried. Wells (4.6 mm in diameter) were then made in the seeded plates. Purified nisin and mutant nisins were resuspended in 0.005% acetic acid, serially diluted, 50 μl volumes were dispensed into the aforementioned wells and the plates incubated at 37° C. overnight. Bioactivity was expressed as arbitrary units/ml (AU/ml) and calculated as the reciprocal of the highest dilution that gave a definite zone multiplied by the conversion factor (i.e. 20 when 50 μl was used) (Ryan et al., 1996).
(§3) As a consequence of the enhanced activities of K22T and K22S, a more in-depth investigation of this region was carried out. Saturation mutagenesis was undertaken to create a bank of nisin A hinge derivatives containing the vast majority of possible amino acid substitutions for each position. Although pPTPL was used successfully for random mutagenesis, its relatively large size of approx 10.5 kb was considered unsuitable for the complete plasmid PCR amplification approach utilized for saturation mutagenesis. A smaller (approx 6 kb) E. coli-L. lactis shuttle vector pCI372 was considered to be potentially more useful. Its suitability with respect to the in trans expression of nisA was confirmed by the ability of pDFO5 to restore the nisin positive phenotype. Saturation mutagenesis was performed on each codon using pDF05 and oligonucleotides (Table 5) that replace the specific codon with a NNK triplet, potentially encoding all 20 standard amino acids. Following complete plasmid amplification and introduction into the intermediate Top10 host, sequence analysis of a pooled bank of pDF05 derivatives confirmed randomization. Introduction of these variants into L. lactis NZ9800 allowed the expression of mutant nisin A peptides for further analysis. […] 46 residue conversions were isolated. All strains, regardless of bioactivity, were assessed with a view to comprehensively assessing the consequences of each individual hinge alteration.
(§4) Values are an average of duplicate experiments and represent zone size (diameter of zone minus diameter of bacterial growth (i.e. 5 mm) relative to that of the NZ9800 pCI372nisA control. X=Mutants not identified.

Staph. aureus DPC5245 = test: Deferred antagonism assay; type: cell-based; details: producing strain; diameter of zone minus 5 mm; average of duplicates; St. aureus DPC5245
Description: as §2, §3, §4

[2] = test system: Staph. aureus ST528 (MRSA); test: Deferred antagonism assay; type: cell-based; details: producing strain, diameter of zone minus diameter of bacterial growth (5 mm), average of duplicates
Description: as §2, §3, §4

C. sporogenes CBC5 = test: Deferred antagonism assay; type: cell-based, Clostridium sporogenes; parameters: key: + = Enhanced bioactivity relative to control; − = Bioactivity equal to or less than control; NA = no activity evident; details: producing strain
indicator strains = test: Deferred antagonism assays, various indicator strains (summary); type: cell-based; details: for bioactivity of the producing strain, in words: in general / against the strains tested; for Strain(s) against which the derivative (producing strain) displays enhanced bioactivity: relative to nisin A-producing control, value = strains listed
Method in brief: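 Producer strains were replicated on GM17 or GM17 x-gal agar, grown overnight, then overlaid with GM17, BHI, TS or MH soft agar (0.75% w/v) seeded with the indicator strain. Zone size was taken as the clearing diameter minus the diameter of bacterial growth (5 mm).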

L. plantarum CBC6 = test: Deferred antagonism assay; type: cell-based, Lactobacillus plantarum; parameters: key: + = Enhanced bioactivity relative to control; − = Bioactivity equal to or less than control; NA = no activity evident; details: producing strain
Method in brief: as §1

Substance	Bioactivity relative to control (S. aureus CBC4)	Bioactivity relative to control (L. lactis CBC7)	Bioactivity relative to control (L. lactis CBC8)	Bioactivity relative to control (L. monocytogenes CBC3)	Bioactivity relative to control (L. monocytogenes CBC2)	Bioactivity relative to control (L. monocytogenes CBC1)	zone size relative to that of the NZ9800 pCI372nisA control [1]	zone size relative to that of the NZ9800 pCI372nisA control (Staph. aureus DPC5245)	zone size relative to that of the NZ9800 pCI372nisA control [2]	Bioactivity relative to control (C. sporogenes CBC5)	bioactivity of the producing strain, in words (indicator strains)	Bioactivity relative to control (L. plantarum CBC6)	relative bioactivity against the indicators of Table 6 (indicator strains; Staph. aureus ST528, DPC5245 and Strep. agalactiae ATCC 13813 taken together)	Strain(s) against which the derivative (producing strain) displays enhanced bioactivity (indicator strains)
K22D: nisin A derivative, hinge substitution K22D; peptide not detected by CMS (ITSISLCTPGCKTGALMGCNMDTATCHCSIHVSK; cysteine pairing not given here; also: lantibiotic nisin-A; UniProt P13068 24-57, looked up, variant K22D)	−	−	−	−	−	−	0%	0%	0%	−	devoid of bioactivity	−		
M21E: nisin A derivative, hinge substitution M21E (ITSISLCTPGCKTGALMGCNEKTATCHCSIHVSK; cysteine pairing not given here; also: lantibiotic nisin-A; UniProt P13068 24-57, looked up, variant M21E)	−	−	−	−	−	−	0%	0%	0%	−	loss of bioactivity	−		
N20L: nisin A derivative, hinge substitution N20L (ITSISLCTPGCKTGALMGCLMKTATCHCSIHVSK; cysteine pairing not given here; also: lantibiotic nisin-A; UniProt P13068 24-57, looked up, variant N20L)	−	−	−	−	−	−	69%	69.5%	43%	−	retention of relatively high levels of bioactivity	−		
N20V: nisin A derivative, hinge substitution N20V (ITSISLCTPGCKTGALMGCVMKTATCHCSIHVSK; cysteine pairing not given here; also: lantibiotic nisin-A; UniProt P13068 24-57, looked up, variant N20V)	−	−	−	−	−	−	63%	77%	68%	−	reduced bioactivity levels	−		
NisinA K22G (ITSISLCTPGCKTGALMGCNMGTATCHCSIHVSK; cysteine pairing not given here; also: lantibiotic nisin-A; UniProt P13068 24-57, looked up, variant K22G) [nisin A derivative, hinge substitution K22G]	−	+	+	−	−	−	126%	112%	118.5%	−		−	approximately 120%	L. lactis CBC7 and CBC8; also recorded: DPC5425, Strep. agalactiae ATCC 13813
NisinA K22L (ITSISLCTPGCKTGALMGCNMLTATCHCSIHVSK; not fully specified; cysteine pairing not given here; also: lantibiotic nisin-A; UniProt P13068 24-57, looked up, variant K22L) [nisin A derivative, hinge substitution K22L]	−	−	+	−	−	−	108%	89%	93.5%	−	retention of relatively high levels of bioactivity	−		L. lactis CBC8
NisinA K22M (ITSISLCTPGCKTGALMGCNMMTATCHCSIHVSK; cysteine pairing not given here; also: lantibiotic nisin-A; UniProt P13068 24-57, looked up, variant K22M) [nisin A derivative, hinge substitution K22M]	−	−	+	−	−	−	104%	79.5%	77%	−	retention of relatively high levels of bioactivity	−		L. lactis CBC8
